Measured values from patent US5118705A, “Water soluble salts of purpuromycin and pharmaceutical formulations thereof” (Gruppo Lepetit S.p.A., priority 1990, dated 1992).
Converted amounts (≈) assume the structure as drawn. Structures can show the parent of a compound that is named as a salt. Where two headings read alike, the source gives them in different places. One block for each compound: values may come before it.

Legend:
[1] = test system: Gardnerella vaginalis ATCC 14018 and other 11 clinical isolates; assay: Activity against Gardnerella vaginalis, standard two fold dilution methods
Experimental: The strains were grown on Casman medium (Difco) plus 5% (v/v) whole rabbit blood and 0.15 (v/v) lysed rabbit blood. Inoculum size: approximately 10^4 colony forming units per spot. Incubation in an anaerobic hood: 48 hours at 37° C.

[2] = test system: Trichomonas vaginalis strain TVL; assay: Activity against Trichomonas vaginalis, two-fold tube dilution method; type: cell-based; conditions: Trichomonas vaginalis, 48 h
Experimental: Trichomonas vaginalis (applicant's internal code TVL) was grown on Trichomonas Culture Medium Base (Merck) plus 10% heat treated horse serum. Inoculum: approximately 10^5 organisms/ml. Incubation: 48 hours at 37° C.

[3] = test system: Candida albicans SKF 2270; assay: Activity against Candida strains, two-fold dilution method; type: cell-based; conditions: for MIC: Candida albicans, SKF2270, 20 h
Experimental: (§1) This set of experiments included also one strain each of two other Candida species, Candida tropicalis and Candida kruzei. The M.I.C. were determined by the two-fold dilution method in buffered (0.01 M phosphate buffer, pH 7.4) yeast nitrogen base medium (Difco) supplemented with 1.5 g/liter asparagine in microtiter trays. Inocula were approximately 10^4 colony forming units/ml. Incubation was for 20 h at 30° C. Purpuromycin was dissolved in DMSO and added to the cultures as above.

[4] = test system: Candida albicans ATCC 10231; assay: as above; type: cell-based; conditions: for MIC: Candida albicans, ATCC10231, 20 h
Experimental: as §1

[5] = test system: Trichomonas vaginalis TVL; assay: In vitro activity, M.I.C., microtiter trays; type: cell-based; conditions: salts calculated as weight of purpuromycin; 48 h, anaerobic hood, 37° C.
Experimental: MIC were performed in flat-bottomed microtiter trays, with 0.2 ml per well. The medium was TYM modified basal medium (Merck) plus 10% horse serum (treated to inactivate complement). The inoculum was ca. 10^5 organisms/ml; incubation was for 48 h in an anaerobic hood (37° C.).The microtiter wells were read using an inverted light microscope. The MIC was taken as the lowest concentration at which no live (mobile) protozoa were seen.

[6] = test system: Neisseria gonorrhoeae L 997; assay: In vitro activity, M.I.C., microbroth dilution; type: cell-based; conditions: salts calculated as weight of purpuromycin; 37° C., 48 h, 5% CO2
Experimental: (§2) MIC were determined by the microbroth dilution test. Bacteria were grown at 37° C., fungi at 30° C. Incubation was for 20 h, except for Propionibacterium acnes, Bacteroides fragilis, Neisseria gonorrhoeae, Haemophilus influenzae (48 h) and Trichophyton mentagrophytes (72h) Neisseria gonorrhoeae and Haemophilus influenzae were incubated in a CO2 -enriched (5%) atmosphere; Propionibacterium acnes and Bacteroides fragilis in an anaerobic hood. Media used were: Oxoid Iso-sensitest broth (Staphylococci, Enterococcus faecalis and Escherichia coli); Difco Todd-Hewitt broth (streptococci); Difco GC base broth with 1% BBL IsoVitaleX (Neisseria gonorrhoeae); Difco Brain-Heart Infusion broth with 1% Difco supplement C (Haemophilus influenzae); Difco Wilkins-Chalgren broth (Propionibacterium acnes and Bacteroides fragilis); Difco Yeast Nitrogen Base broth with 1.5 g/1 asparagine (Candida albicans); Difco Sabouraud-dextrose broth (Trichophyton mentagrophytes). Inocula were approximately 10^4 CFU/ml.

[7] = test system: Bacteroides fragilis ATCC 23745; assay: In vitro activity, M.I.C., microbroth dilution; type: cell-based; conditions: salts calculated as weight of purpuromycin; 37° C., 48 h, anaerobic hood
Experimental: as §2

[8] = test system: Candida albicans SKF 2270; assay: In vitro activity, M.I.C., microbroth dilution; type: cell-based; conditions: salts calculated as weight of purpuromycin; 30° C., 20 h
Experimental: as §2

[9] = test system: Haemophilus influenzae ATCC 19418; assay: In vitro activity, M.I.C., microbroth dilution; type: cell-based; conditions: salts calculated as weight of purpuromycin; 37° C., 48 h, 5% CO2
Experimental: as §2

[10] = test system: Staph. aureus Tour L 165; assay: In vitro activity, M.I.C., microbroth dilution; type: cell-based; conditions: salts calculated as weight of purpuromycin; 37° C., 20 h
Experimental: as §2

[11] = test system: Enterococcus faecalis ATCC 7080; assay: In vitro activity, M.I.C., microbroth dilution; type: cell-based; conditions: salts calculated as weight of purpuromycin; 37° C., 20 h
Experimental: as §2

[12] = test system: Escherichia coli SKF 12140; assay: In vitro activity, M.I.C., microbroth dilution; type: cell-based; conditions: salts calculated as weight of purpuromycin; 37° C., 20 h
Experimental: as §2

[13] = test system: Strep. pyogenes L49; assay: In vitro activity, M.I.C., microbroth dilution; type: cell-based; conditions: salts calculated as weight of purpuromycin; 37° C., 20 h
Experimental: as §2

[14] = test system: Staph. epidermidis ATCC 12228; assay: In vitro activity, M.I.C., microbroth dilution; type: cell-based; conditions: salts calculated as weight of purpuromycin; 37° C., 20 h
Experimental: as §2

[15] = test system: Staph. haemolyticus L602; assay: In vitro activity, M.I.C., microbroth dilution; type: cell-based; conditions: salts calculated as weight of purpuromycin; 37° C., 20 h
Experimental: as §2

[16] = test system: Trichophyton mentagrophytes SKF 17410; assay: In vitro activity, M.I.C., microbroth dilution; type: cell-based; conditions: salts calculated as weight of purpuromycin; 30° C., 72 h
Experimental: as §2

[17] = test system: Strep. pneumoniae L44; assay: In vitro activity, M.I.C., microbroth dilution; type: cell-based; conditions: salts calculated as weight of purpuromycin; 37° C., 20 h
Experimental: as §2

[18] = test system: Propionibacterium acnes ATCC 6919; assay: In vitro activity, M.I.C., microbroth dilution; type: cell-based; conditions: salts calculated as weight of purpuromycin; 37° C., 48 h, anaerobic hood
Experimental: as §2

[19] = Solubility and pH of solution; type: physicochemical
[20] = test system: Gardnerella vaginalis; assay: In vitro activity, M.I.C., agar dilution; type: cell-based; conditions: salts calculated as weight of purpuromycin; ATCC 14018 and 10 clinical isolates, all same M.I.C.; inoculum ca. 10^5 CFU, 48 h
Experimental: **The assay was carried out on strain ATCC 14018 and 10 clinical isolates
Incubation was for 48 h in an anaerobic hood (37° C.); inoculum ca. 10^5 CFU.

[21] = comparative tests, antibacterial agents, read-out: M.I.C.
[22] = comparative tests, antibacterial agents

Compound: Clc1ccc(COC(Cn2ccnc2)c2ccc(Cl)cc2Cl)c(Cl)c1 (centres unmarked) [Miconazole]
MIC ([1]; Gardnerella vaginalis, read-out: MIC on resistant strains): > 128 µg/mL
Number of strains with MIC of 4 mcg/ml ([1]; MIC 4 mcg/ml, 12 strains tested): 1 strains
Number of strains with MIC of 8 mcg/ml ([1]; MIC 8 mcg/ml, 12 strains tested): 7 strains
Number of strains with MIC of 32 mcg/ml ([1]; MIC 32 mcg/ml, 12 strains tested): 2 strains
Number of strains with MIC of >128 mcg/ml ([1]; MIC >128 mcg/ml, 12 strains tested): 2 strains
MIC [2]: 32 µg/mL (≈ 76.9 µM)

MIC [3, 21]: > 128 µg/mL
MIC [4, 21]: > 128 µg/mL
Compound: CC1(C)S[C@@H]2[C@H](NC(=O)[C@H](N)c3ccccc3)C(=O)N2[C@H]1C(=O)O [ampicillin]

Compound: COC(=O)c1cc2cc3c(c(O)c2c(=O)o1)OC1(Cc2c(O)c4c(c(O)c2O1)C(=O)C(OC)=CC4=O)CC3O (centres unmarked) [Purpuromycin salt with TRIS (1:1.5), Salt of purpuromycin with tris-(hydroxymethyl) aminomethane]
M.I.C. [5]: 4 mg/L
M.I.C. [6]: 0.06 mg/L
M.I.C. [7]: 0.13 mg/L
M.I.C. [8]: 1 mg/L
M.I.C. [9]: 0.06 mg/L
M.I.C. [10]: 0.06 mg/L
M.I.C. [11]: 0.06 mg/L
M.I.C. [12]: 16 mg/L
M.I.C. [13]: 0.06 mg/L
M.I.C. [14]: 0.06 mg/L
M.I.C. [15]: 0.06 mg/L
M.I.C. [16]: 1 mg/L
M.I.C. [17]: 0.13 mg/L
M.I.C. [18]: 0.06 mg/L
pH value of the solution ([19]; solution at 4.5 mg/ml in distilled water): 8.8
solubility ([19]; water, room temperature, calculated as purpuromycin, read-out: solubility in distilled water): 4500 µg/mL
M.I.C. [20]: 16 mg/L

MIC [3, 21]: > 128 µg/mL
MIC [4, 21]: > 128 µg/mL
Compound: CO[C@@]1(NC(=O)Cc2cccs2)C(=O)N2C(C(=O)O)=C(COC(N)=O)CS[C@@H]21 [cefoxitin]

Compound: gentamicin
M.I.C. [3, 22]: higher than 128 microgram/ml
M.I.C. [4, 22]: higher than 128 microgram/ml

Compound: CC[C@H]1OC(=O)[C@H](C)[C@@H](O[C@H]2C[C@@](C)(OC)[C@@H](O)[C@H](C)O2)[C@H](C)[C@@H](O[C@@H]2O[C@H](C)C[C@H](N(C)C)[C@H]2O)[C@](C)(O)C[C@@H](C)C(=O)[C@H](C)[C@@H](O)[C@]1(C)O [erythromycin]
MIC [3]: > 128 µg/mL
MIC [4]: > 128 µg/mL

Compound: CC1(C)S[C@@H]2[C@H](NC(=O)Cc3ccccc3)C(=O)N2[C@H]1C(=O)O [penicillin G]
MIC [3]: > 128 µg/mL
MIC [4]: > 128 µg/mL

Compound: O=C(N[C@H](CO)[C@H](O)c1ccc([N+](=O)[O-])cc1)C(Cl)Cl [chloramphenicol]
MIC [3]: > 128 µg/mL
MIC [4]: > 128 µg/mL
